In this experiment the target is human PAD4 (Homo sapiens (Human), UniProt Q9UM07). Briefly: In Vitro PAD4 BAEE Biochemical Assay. The settings on record: human PAD4, BAEE substrate; 5 nM PAD4, 2 mM calcium chloride, 3 mM BAEE; geometric mean of multiple experiments. The method in brief:
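Recombinant human PAD4 (His-SUMO tag removed, E. coli-expressed), 5 nM, preincubated with compound and 2 mM CaCl2 30 min at 25 °C in MOPS pH 7.6 with DTT; 3 mM BAEE added for 2 h at 25 °C, EDTA stop. Released ammonia detected by o-phthalaldehyde/DTT fluorescence (ex 405, em 535 nm).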
Chain of human PAD4 (Q9UM07 2-663): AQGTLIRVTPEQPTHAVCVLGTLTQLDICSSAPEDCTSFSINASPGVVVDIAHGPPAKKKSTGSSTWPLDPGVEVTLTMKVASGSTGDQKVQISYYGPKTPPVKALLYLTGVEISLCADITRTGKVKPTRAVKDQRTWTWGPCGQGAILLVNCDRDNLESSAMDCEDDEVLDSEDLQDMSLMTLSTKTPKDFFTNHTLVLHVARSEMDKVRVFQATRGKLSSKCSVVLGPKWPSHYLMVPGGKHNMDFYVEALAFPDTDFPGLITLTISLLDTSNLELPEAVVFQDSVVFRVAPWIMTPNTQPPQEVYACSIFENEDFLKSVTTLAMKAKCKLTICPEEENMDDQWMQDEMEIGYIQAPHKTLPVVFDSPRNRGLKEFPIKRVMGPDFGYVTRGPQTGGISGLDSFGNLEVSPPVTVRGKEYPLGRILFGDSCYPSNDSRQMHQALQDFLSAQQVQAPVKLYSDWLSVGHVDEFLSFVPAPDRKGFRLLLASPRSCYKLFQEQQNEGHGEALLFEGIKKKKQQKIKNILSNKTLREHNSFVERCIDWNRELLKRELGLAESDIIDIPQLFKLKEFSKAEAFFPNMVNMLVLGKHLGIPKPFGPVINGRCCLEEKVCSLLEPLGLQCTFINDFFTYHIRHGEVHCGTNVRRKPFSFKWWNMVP
Take `CCCS(=O)(=O)N[C@H](C)c1ccc2cc(-c3nc4cc(C(=O)N5[C@H]6CC[C@@H]5[C@H](N)C6)cc(OC)c4n3C)n(CC3CC3)c2n1` [Example 240, N—((R)-1-(2-(5-((1R,2R,4S)-2-amino-7-azabicyclo[2.2.1]heptane-7-carbonyl)-7-methoxy-1-methyl-1H-benzo[d]imidazol-2-yl)-1-(cyclopropylmethyl)-1H-pyrrolo[2,3-b]pyridin-6-yl)ethyl)propane-1-sulfonamide]: the IC50 (as a rule, the concentration that gives 50% inhibition) amounted to 65.6 nM.

Regarding `COc1cc(C(=O)N2[C@H]3CC[C@@H]2[C@H](N)C3)cc2nc(-c3cc4ccc([C@@H](C)NS(=O)(=O)c5cnn(C)c5)nc4n3CC3CC3)n(C)c12` [Example 241, N-((R)-1-(2-(5-((1R,2R,4S)-2-amino-7-azabicyclo[2.2.1]heptane-7-carbonyl)-7-methoxy-1-methyl-1H-benzo[d]imidazol-2-yl)-1-(cyclopropylmethyl)-1H-pyrrolo[2,3-b]pyridin-6-yl)ethyl)-1-methyl-1H-pyrazole-4-sulfonamide], the IC50 is 76.7 nM.

`COc1cc(C(=O)N2[C@H]3CC[C@@H]2[C@H](N)C3)cc2nc(-c3cc4ccc([C@@H](C)NS(=O)(=O)c5ccc(F)cc5)nc4n3CC3CC3)n(C)c12` [Example 242, N-((R)-1-(2-(5-((1R,2R,4S)-2-amino-7-azabicyclo[2.2.1]heptane-7-carbonyl)-7-methoxy-1-methyl-1H-benzo[d]imidazol-2-yl)-1-(cyclopropylmethyl)-1H-pyrrolo[2,3-b]pyridin-6-yl)ethyl)-4-fluorobenzenesulfonamide]: the IC50 turned out to be 107 nM.

`COc1cc(C(=O)N2[C@H]3CC[C@@H]2[C@H](N)C3)cc2nc(-c3cc4ccc([C@@H](C)NS(C)(=O)=O)nc4n3CC3CC3)n(C)c12` [Example 243, N-((R)-1-(2-(5-((1R,2R,4S)-2-amino-7-azabicyclo[2.2.1]heptane-7-carbonyl)-7-methoxy-1-methyl-1H-benzo[d]imidazol-2-yl)-1-(cyclopropylmethyl)-1H-pyrrolo[2,3-b]pyridin-6-yl)ethyl)methanesulfonamide]: the IC50 worked out at 52.8 nM.

Regarding `COc1cc(C(=O)N2CCC[C@@H](N)C2)cc2nc(-c3cc4ccc([C@@H](C)N5CCCC5=O)nc4n3CC3CC3)n(C3CC3)c12` [Example 244, 1-((R)-1-(2-(5-((R)-3-aminopiperidine-1-carbonyl)-1-cyclopropyl-7-methoxy-1H-benzo[d]imidazol-2-yl)-1-(cyclopropylmethyl)-1H-pyrrolo[2,3-b]pyridin-6-yl)ethyl)pyrrolidin-2-one], the IC50 amounted to 49.3 nM.

`COc1cc(C(=O)N2[C@H]3CC[C@@H]2[C@H](N)C3)cc2nc(-c3cc4ccc([C@@H](C)N5CCCC5=O)nc4n3CC3CC3)n(C3CC3)c12` [Example 245]: the IC50 was 31.7 nM.

For the molecule `COc1cc(C(=O)N2[C@H]3CC[C@@H]2[C@H](N)C3)cc2nc(-c3cc4ccc([C@H]5CCCN5C(=O)C(C)(C)C)nc4n3CC3CC3)n(C)c12` [Example 246, 1-((R)-2-(2-(5-((1R,2R,4S)-2-amino-7-azabicyclo[2.2.1]heptane-7-carbonyl)-7-methoxy-1-methyl-1H-benzo[d]imidazol-2-yl)-1-(cyclopropylmethyl)-1H-pyrrolo[2,3-b]pyridin-6-yl)pyrrolidin-1-yl)-2,2-dimethylpropan-1-one], the IC50 amounted to 48.4 nM.

Regarding `COc1cc(C(=O)N2[C@H]3CC[C@@H]2[C@H](N)C3)cc2nc(-c3cc4ccc([C@H]5CCCN5C(C)=O)nc4n3CC3CC3)n(C)c12` [Example 247, 1-((R)-2-(2-(5-((1R,2R,4S)-2-amino-7-azabicyclo[2.2.1]heptane-7-carbonyl)-7-methoxy-1-methyl-1H-benzo[d]imidazol-2-yl)-1-(cyclopropylmethyl)-1H-pyrrolo[2,3-b]pyridin-6-yl)pyrrolidin-1-yl)ethan-1-one], the IC50 came out at 36.7 nM.

As to `COc1cc(C(=O)N2[C@H]3CC[C@@H]2[C@H](N)C3)cc2nc(-c3cc4ccc([C@H]5CCCN5C(=O)N5CCCC5)nc4n3CC3CC3)n(C)c12` [Example 248, ((R)-2-(2-(5-((1R,2R,4S)-2-amino-7-azabicyclo[2.2.1]heptane-7-carbonyl)-7-methoxy-1-methyl-1H-benzo[d]imidazol-2-yl)-1-(cyclopropylmethyl)-1H-pyrrolo[2,3-b]pyridin-6-yl)pyrrolidin-1-yl)(pyrrolidin-1-yl)methanone], the IC50 worked out at 40.5 nM.

`COc1cc(C(=O)N2C[C@H](N)CCN2C)cc2nc(-c3cc4ccc(C(C)(C)O)nc4n3CC3CC3)n(C)c12` [Example 249, (R)-(5-amino-2-methyltetrahydropyridazin-1(2H)-yl)(2-(1-(cyclopropylmethyl)-6-(2-hydroxypropan-2-yl)-1H-pyrrolo[2,3-b]pyridin-2-yl)-7-methoxy-1-methyl-1H-benzo[d]imidazol-5-yl)methanone]: the IC50 is 227 nM.

Consider `COc1cc(C(=O)N2C[C@H](N)CC[C@@H]2C)cc2nc(-c3cc4ccc(C(=O)N(C)C)nc4n3CC3CC3)n(C)c12` [Example 250, 2-(5-((2S,5R)-5-amino-2-methylpiperidine-1-carbonyl)-7-methoxy-1-methyl-1H-benzo[d]imidazol-2-yl)-1-(cyclopropylmethyl)-N,N-dimethyl-1H-pyrrolo[2,3-b]pyridine-6-carboxamide], for which the IC50 came to 874 nM.

Consider `CNC(=O)c1ccc2cc(-c3nc4cc(C(=O)N5C[C@H](N)CC[C@@H]5C)cc(OC)c4n3C)n(CC3CC3)c2n1` [Example 251, 2-(5-((2S,5R)-5-amino-2-methylpiperidine-1-carbonyl)-7-methoxy-1-methyl-1H-benzo[d]imidazol-2-yl)-1-(cyclopropylmethyl)-N-methyl-1H-pyrrolo[2,3-b]pyridine-6-carboxamide], for which the IC50 stood at 1720 nM.

Regarding `COc1cc(C(=O)N2C[C@H](N)CC[C@@H]2C)cc2nc(-c3cc4ccc(C(=O)N(C)c5ccccc5)nc4n3CC3CC3)n(C)c12` [Example 252, 2-(5-((2S,5R)-5-amino-2-methylpiperidine-1-carbonyl)-7-methoxy-1-methyl-1H-benzo[d]imidazol-2-yl)-1-(cyclopropylmethyl)-N-methyl-N-phenyl-1H-pyrrolo[2,3-b]pyridine-6-carboxamide], the IC50 was 1820 nM.

With `COc1cc(C(=O)N2CCC[C@@H](N)C2)cc2nc(-c3cc4ccc(S(C)(=O)=O)nc4n3CC3CC3)n(C)c12` [Example 253, (R)-(3-aminopiperidin-1-yl)(2-(1-(cyclopropylmethyl)-6-(methylsulfonyl)-1H-pyrrolo[2,3-b]pyridin-2-yl)-7-methoxy-1-methyl-1H-benzo[d]imidazol-5-yl)methanone], the IC50 was determined as 797 nM.

Take `COc1cc(C(=O)N2CCC[C@@H](N)C2)cc2nc(-c3cc4ccc(S(=O)(=O)C(C)C)nc4n3CC3CC3)n(C)c12` [Example 254, (R)-(3-aminopiperidin-1-yl)(2-(1-(cyclopropylmethyl)-6-(isopropylsulfonyl)-1H-pyrrolo[2,3-b]pyridin-2-yl)-7-methoxy-1-methyl-1H-benzo[d]imidazol-5-yl)methanone]: the IC50 stood at 550 nM.

For `COc1cc(C(=O)N2[C@H]3CC[C@@H]2[C@H](N)C3)cc2nc(-c3cc4ccc(-n5c(C)cccc5=O)nc4n3CC3CC3)n(C)c12` [Example 255, 1-(2-(5-((1R,2R,4S)-2-amino-7-azabicyclo[2.2.1]heptane-7-carbonyl)-7-methoxy-1-methyl-1H-benzo[d]imidazol-2-yl)-1-(cyclopropylmethyl)-1H-pyrrolo[2,3-b]pyridin-6-yl)-6-methylpyridin-2(1H)-one], the IC50 was 40.2 nM.

In the case of `COc1cc(C(=O)N2C[C@H](N)CC[C@@H]2C)cc2nc(-c3cc4ccc(-c5cc6cn[nH]c6cc5C)nc4n3CC3CC3)n(C)c12` [Example 256, ((2S,5R)-5-amino-2-methylpiperidin-1-yl)(2-(1-(cyclopropylmethyl)-6-(6-methyl-1H-indazol-5-yl)-1H-pyrrolo[2,3-b]pyridin-2-yl)-7-methoxy-1-methyl-1H-benzo[d]imidazol-5-yl)methanone], the IC50 amounted to 1330 nM.

Take `COc1cc(C(=O)N2C[C@H](N)CC[C@@H]2C)cc2nc(-c3cc4ccc(-c5ccc6[nH]ncc6c5C)nc4n3CC3CC3)n(C)c12` [Example 257, ((2S,5R)-5-amino-2-methylpiperidin-1-yl)(2-(1-(cyclopropylmethyl)-6-(4-methyl-1H-indazol-5-yl)-1H-pyrrolo[2,3-b]pyridin-2-yl)-7-methoxy-1-methyl-1H-benzo[d]imidazol-5-yl)methanone]: the IC50 worked out at 1360 nM.

Turning to `COc1cc(C(=O)N2C[C@H](N)CC[C@@H]2C)cc2nc(-c3cc4ccc(-c5cccc6c5NC(=O)C6)nc4n3CC3CC3)n(C)c12` [Example 259, 7-(2-(5-((2S,5R)-5-amino-2-methylpiperidine-1-carbonyl)-7-methoxy-1-methyl-1H-benzo[d]imidazol-2-yl)-1-(cyclopropylmethyl)-1H-pyrrolo[2,3-b]pyridin-6-yl)indolin-2-one], the IC50 was determined as 1830 nM.

For `COc1cc(C(=O)N2C[C@H](N)CC[C@@H]2C)cc2nc(-c3cc4ccc(-c5ccc(N6CCC6)nc5C)nc4n3CC3CC3)n(C)c12` [Example 260, ((2S,5R)-5-amino-2-methylpiperidin-1-yl)(2-(6-(6-(azetidin-1-yl)-2-methylpyridin-3-yl)-1-(cyclopropylmethyl)-1H-pyrrolo[2,3-b]pyridin-2-yl)-7-methoxy-1-methyl-1H-benzo[d]imidazol-5-yl)methanone], the IC50 was 364 nM.

Consider `COc1cc(C(=O)N2C[C@H](N)CC[C@@H]2C)cc2nc(-c3cc4ccc(-c5cccnc5N5CCOCC5)nc4n3CC3CC3)n(C)c12` [Example 261, ((2S,5R)-5-amino-2-methylpiperidin-1-yl)(2-(1-(cyclopropylmethyl)-6-(2-morpholinopyridin-3-yl)-1H-pyrrolo[2,3-b]pyridin-2-yl)-7-methoxy-1-methyl-1H-benzo[d]imidazol-5-yl)methanone], for which the IC50 was 457 nM.
